Consider 13 molecules from patent US11739098B2 (BRISTOL-MYERS SQUIBB COMPANY, priority 2017, dated 2023).

Molecules are shown by their SMILES. Bounds are passed on as bounds.

Assay type in all cases: cell-based
In test [1] the target is T1, human TLR8 (Homo sapiens, UniProt Q9NR97).
T1 construct: host or cells: HEK-Blue cells (HEK293-derived reporter line)
T1 sequence (Q9NR97 27-1041): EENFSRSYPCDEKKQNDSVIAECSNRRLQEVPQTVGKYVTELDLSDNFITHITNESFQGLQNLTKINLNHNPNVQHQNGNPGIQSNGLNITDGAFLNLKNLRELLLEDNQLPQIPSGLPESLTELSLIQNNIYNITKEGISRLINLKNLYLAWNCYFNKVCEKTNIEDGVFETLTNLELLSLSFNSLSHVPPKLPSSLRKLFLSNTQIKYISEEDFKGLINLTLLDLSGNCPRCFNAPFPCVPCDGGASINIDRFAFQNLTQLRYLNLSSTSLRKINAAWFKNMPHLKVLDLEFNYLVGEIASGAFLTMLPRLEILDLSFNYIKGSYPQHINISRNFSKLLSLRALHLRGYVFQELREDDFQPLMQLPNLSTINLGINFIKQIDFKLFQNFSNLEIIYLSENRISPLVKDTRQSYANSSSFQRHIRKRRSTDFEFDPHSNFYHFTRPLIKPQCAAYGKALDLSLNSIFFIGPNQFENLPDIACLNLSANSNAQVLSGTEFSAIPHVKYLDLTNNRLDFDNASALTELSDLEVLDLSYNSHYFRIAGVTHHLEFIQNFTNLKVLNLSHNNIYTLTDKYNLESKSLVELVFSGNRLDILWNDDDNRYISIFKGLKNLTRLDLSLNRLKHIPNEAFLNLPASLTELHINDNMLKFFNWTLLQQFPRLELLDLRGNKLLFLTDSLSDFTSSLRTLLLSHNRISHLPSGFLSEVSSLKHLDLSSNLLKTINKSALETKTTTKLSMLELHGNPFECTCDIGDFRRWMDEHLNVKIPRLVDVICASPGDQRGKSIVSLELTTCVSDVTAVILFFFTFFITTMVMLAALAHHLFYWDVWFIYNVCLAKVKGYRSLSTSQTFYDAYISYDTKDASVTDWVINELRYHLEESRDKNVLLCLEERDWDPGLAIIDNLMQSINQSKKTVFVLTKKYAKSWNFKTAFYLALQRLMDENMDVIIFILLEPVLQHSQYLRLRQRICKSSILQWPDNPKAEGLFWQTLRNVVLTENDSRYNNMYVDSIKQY
Kind of test: TLR8 inhibition reporter assay (HEK-Blue cells, SEAP reporter, R848 stimulation). The conditions noted are these: HEK-Blue cells overexpressing human TLR8, SEAP reporter, R848 15.9 μM. Put shortly:
(§1)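 After 22 h at 37 °C, SEAP secretion was measured from human TLR7-, TLR8- or TLR9-expressing HEK-Blue reporter cells given compound (0.05 nM–50 μM) 30 min before agonist: 7.5 μM gardiquimod, 15.9 μM R848 or 5 nM ODN2006 respectively. Percent inhibition referenced to agonist-plus-DMSO and known-inhibitor wells.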

Test [2] concerns the target T2, human TLR7 (Homo sapiens, UniProt Q9NYK1).
T2 construct: host or cells: HEK-Blue cells (HEK293-derived reporter line)
T2 sequence (Q9NYK1 27-1049): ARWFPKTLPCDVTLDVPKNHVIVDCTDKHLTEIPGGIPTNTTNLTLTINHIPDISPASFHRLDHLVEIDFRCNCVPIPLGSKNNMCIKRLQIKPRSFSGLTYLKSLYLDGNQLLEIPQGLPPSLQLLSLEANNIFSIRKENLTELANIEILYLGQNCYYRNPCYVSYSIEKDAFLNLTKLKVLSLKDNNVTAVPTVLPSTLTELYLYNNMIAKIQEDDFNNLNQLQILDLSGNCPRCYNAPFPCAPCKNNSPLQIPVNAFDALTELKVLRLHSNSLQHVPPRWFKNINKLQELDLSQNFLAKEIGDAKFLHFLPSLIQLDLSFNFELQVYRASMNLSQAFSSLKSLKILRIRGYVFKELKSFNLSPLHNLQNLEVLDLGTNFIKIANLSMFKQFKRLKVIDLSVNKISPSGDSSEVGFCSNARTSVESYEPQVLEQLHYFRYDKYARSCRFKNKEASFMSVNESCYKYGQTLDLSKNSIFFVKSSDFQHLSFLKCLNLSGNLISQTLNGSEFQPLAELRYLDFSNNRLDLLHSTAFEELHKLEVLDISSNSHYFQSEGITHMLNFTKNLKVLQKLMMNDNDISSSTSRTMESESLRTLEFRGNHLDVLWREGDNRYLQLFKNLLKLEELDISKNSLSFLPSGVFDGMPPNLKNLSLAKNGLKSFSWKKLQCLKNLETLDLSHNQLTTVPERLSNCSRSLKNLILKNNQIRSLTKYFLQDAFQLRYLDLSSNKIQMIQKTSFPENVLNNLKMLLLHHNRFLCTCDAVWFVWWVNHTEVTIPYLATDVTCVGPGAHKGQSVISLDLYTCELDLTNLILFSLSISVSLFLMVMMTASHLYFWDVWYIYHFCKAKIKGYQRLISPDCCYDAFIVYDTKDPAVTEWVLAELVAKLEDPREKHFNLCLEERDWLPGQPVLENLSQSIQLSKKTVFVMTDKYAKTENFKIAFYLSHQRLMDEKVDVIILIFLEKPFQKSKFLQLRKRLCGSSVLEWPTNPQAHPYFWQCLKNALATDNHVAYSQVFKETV
Kind of test: TLR7 inhibition reporter assay (HEK-Blue cells, SEAP reporter, gardiquimod stimulation). The conditions noted are these: HEK-Blue cells overexpressing human TLR7, SEAP reporter, gardiquimod 7.5 μM. Put shortly: as §1
In general terms: Reporter assays use an easily measured gene product as a stand-in for the process of interest.

Test [3] has as its target T3, human TLR9 (Homo sapiens, UniProt Q9NR96).
T3 construct: host or cells: HEK-Blue cells (HEK293-derived reporter line)
T3 sequence (Q9NR96 26-1032): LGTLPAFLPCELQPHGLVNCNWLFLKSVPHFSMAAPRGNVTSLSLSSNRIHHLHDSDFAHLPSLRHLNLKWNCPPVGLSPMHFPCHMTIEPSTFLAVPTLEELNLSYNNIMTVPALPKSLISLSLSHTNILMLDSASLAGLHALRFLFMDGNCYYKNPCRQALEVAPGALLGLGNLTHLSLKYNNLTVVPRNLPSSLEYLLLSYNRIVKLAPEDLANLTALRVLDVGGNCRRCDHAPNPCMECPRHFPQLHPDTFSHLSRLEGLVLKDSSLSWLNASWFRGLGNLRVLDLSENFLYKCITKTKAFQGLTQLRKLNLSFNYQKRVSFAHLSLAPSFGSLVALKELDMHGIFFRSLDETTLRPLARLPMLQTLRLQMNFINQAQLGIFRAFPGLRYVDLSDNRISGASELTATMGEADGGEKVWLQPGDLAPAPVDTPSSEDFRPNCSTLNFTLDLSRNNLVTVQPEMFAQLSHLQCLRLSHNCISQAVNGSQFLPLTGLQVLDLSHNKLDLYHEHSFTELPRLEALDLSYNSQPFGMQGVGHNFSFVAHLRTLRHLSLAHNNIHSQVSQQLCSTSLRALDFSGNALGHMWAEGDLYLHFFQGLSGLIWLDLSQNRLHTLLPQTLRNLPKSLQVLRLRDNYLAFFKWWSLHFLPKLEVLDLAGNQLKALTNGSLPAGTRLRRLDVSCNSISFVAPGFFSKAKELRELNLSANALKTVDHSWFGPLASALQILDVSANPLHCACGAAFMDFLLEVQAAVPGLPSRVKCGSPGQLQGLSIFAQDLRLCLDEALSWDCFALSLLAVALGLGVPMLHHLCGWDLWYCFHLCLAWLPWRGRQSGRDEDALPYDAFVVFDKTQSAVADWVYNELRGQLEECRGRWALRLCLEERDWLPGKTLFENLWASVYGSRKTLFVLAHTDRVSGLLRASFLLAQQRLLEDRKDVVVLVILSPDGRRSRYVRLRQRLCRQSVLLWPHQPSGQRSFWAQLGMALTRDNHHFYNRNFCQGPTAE
Kind of test: TLR9 inhibition reporter assay (HEK-Blue cells, SEAP reporter, ODN2006 stimulation). Particulars: HEK-Blue cells overexpressing human TLR9, SEAP reporter, ODN2006 5 nM. The gist of the method:
as §1

As usually defined, the IC50 is the concentration that inhibits the measured activity by half. Turning to `CC(C)c1c(-c2ccnc3[nH]ncc23)[nH]c2cc(F)c(C3CCN(C4CCN(C(C)C)CC4)CC3)cc12` [Example 830, 4-(6-fluoro-3-isopropyl-5-(1′-isopropyl-[1,4′-bipiperidin]-4-yl)-1H-indol-2-yl)-1H-pyrazolo[3,4-b]pyridine], the IC50 in test [1], in test [2] and in test [3] was less than 0.1 µM throughout.

In the case of `COC(=O)C1CC(N2CCC(c3ccc4[nH]c(-c5ccnc6[nH]ncc56)c(C(C)C)c4c3)CC2)CCN1` (stereo not drawn) [Example 831, methyl 4-(3-isopropyl-2-(1H-pyrazolo[3,4-b]pyridin-4-yl)-1H-indol-5-yl)-[1,4′-bipiperidine]-2′-carboxylate], the half-maximal inhibitory concentration (IC50) in test [1] was less than 0.1 µM; in test [2], less than 0.1 µM; in test [3], 0.1 to 1 µM.

`CC(C)c1c(-c2ccnc3[nH]ncc23)[nH]c2ccc(C3CCN(C4CCNCC4)CC3)cc12` [Example 832, 4-(5-([1,4′-bipiperidin]-4-yl)-3-isopropyl-1H-indol-2-yl)-1H-pyrazolo[3,4-b]pyridine]: the IC50 in test [1] is less than 0.1 µM; in test [2], less than 0.1 µM; in test [3], 0.1 to 1 µM.

`Cc1c(-c2ccnc3[nH]ncc23)[nH]c2ccc(C3CCN(C4CCN(C(C)C)CC4)CC3)cc12` [Example 833, 4-(5-(1′-isopropyl-[1,4′-bipiperidin]-4-yl)-3-methyl-1H-indol-2-yl)-1H-pyrazolo[3,4-b]pyridine]: the IC50 in test [1], in test [2] and in test [3] was less than 0.1 µM in each case.

As to `CC(C)c1c(-c2ccnc3[nH]ncc23)[nH]c2ccc(C3CCN(C4CCNCC4C)CC3)cc12` (stereo not drawn) [Example 834, 4-(3-isopropyl-5-(3′-methyl-[1,4′-bipiperidin]-4-yl)-1H-indol-2-yl)-1H-pyrazolo[3,4-b]pyridine], the IC50 in test [1] is less than 0.1 µM; in test [2], less than 0.1 µM; in test [3], 0.1 to 1 µM.

On to `CCOC(=O)N1CCC(N2CCC(c3ccc4[nH]c(-c5ccnc6[nH]ncc56)c(C(C)C)c4c3)CC2)C(C)C1` (stereo not drawn) [Example 835, ethyl 4-(3-isopropyl-2-(1H-pyrazolo[3,4-b]pyridin-4-yl)-1H-indol-5-yl)-3′-methyl-[1,4′-bipiperidine]-1′-carboxylate], for which the results for the concentration for half-maximal inhibition (IC50) in test [1], in test [2] and in test [3] were 0.1 to 1 µM, 0.1 to 1 µM and 1 to 50 µM, respectively.

In the case of `CCc1c(-c2cnc3cn[nH]c3c2)[nH]c2ccc(C3CCN(C4CCN(C(C)C)CC4)CC3)cc12` [Example 836, 6-(3-ethyl-5-(1′-isopropyl-[1,4′-bipiperidin]-4-yl)-1H-indol-2-yl)-1H-pyrazolo[4,3-b]pyridine], the IC50 in test [1], in test [2] and in test [3] was less than 0.1 µM in each case.

Take `CCc1c(-c2ccnc3[nH]ccc23)[nH]c2ccc(C3CCN(C4CCN(CC)CC4)CC3)cc12` [Example 837, 4-(3-ethyl-5-(1′-ethyl-[1,4′-bipiperidin]-4-yl)-1H-indol-2-yl)-1H-pyrrolo[2,3-b]pyridine]: the 50% inhibitory concentration (IC50) is less than 0.1 µM in test [1], less than 0.1 µM in test [2] and 0.1 to 1 µM in test [3].

As for `CCc1c(-c2ccnc3[nH]ccc23)[nH]c2ccc(C3CCN(C4CC(C)(C)NC(C)(C)C4)CC3)cc12` [Example 838, 4-(3-ethyl-5-(2′,2′,6′,6′-tetramethyl-[1,4′-bipiperidin]-4-yl)-1H-indol-2-yl)-1H-pyrrolo[2,3-b]pyridine], the IC50 is less than 0.1 µM in test [1], less than 0.1 µM in test [2] and 0.1 to 1 µM in test [3].

Regarding `CCc1c(-c2ccnc3[nH]ccc23)[nH]c2ccc(C3CCN(C4CCN(C)CC4)CC3)cc12` [Example 839, 4-(3-ethyl-5-(1′-methyl-[1,4′-bipiperidin]-4-yl)-1H-indol-2-yl)-1H-pyrrolo[2,3-b]pyridine], the IC50 in test [1], in test [2] and in test [3] was less than 0.1 µM in each case.

In the case of `CCc1c(-c2ccnc3[nH]ccc23)[nH]c2cc(C)c(C3CCN(C4CCN(C(C)C)CC4)CC3)cc12` [Example 840, 4-(3-ethyl-5-(1′-isopropyl-[1,4′-bipiperidin]-4-yl)-6-methyl-1H-indol-2-yl)-1H-pyrrolo[2,3-b]pyridine], the 50% inhibitory concentration (IC50) lay within 1 to 50 µM in test [1], 1 to 50 µM in test [2] and 0.1 to 1 µM in test [3].

`Cc1cc2nccn2cc1-c1[nH]c2ccc(C3CCN(C4CCN(C(C)C)CC4)CC3)cc2c1C(C)C` [Example 841, 6-(3-isopropyl-5-(1′-isopropyl-[1,4′-bipiperidin]-4-yl)-1H-indol-2-yl)-7-methylimidazo[1,2-a]pyridine]: the IC50 in test [1], in test [2] and in test [3] was less than 0.1 µM throughout.

On to `CCc1c(-c2ccnc3[nH]cc(Cl)c23)[nH]c2ccc(C3CCN(C4CCN(C(C)C)CC4)CC3)cc12` [Example 842, 3-chloro-4-(3-ethyl-5-(1′-isopropyl-[1,4′-bipiperidin]-4-yl)-1H-indol-2-yl)-1H-pyrrolo[2,3-b]pyridine], for which the 50% inhibitory concentration (IC50) in test [1] is less than 0.1 µM; in test [2] it was 0.1 to 1 µM; in test [3], 0.1 to 1 µM.
